Data on 1 molecule can be found in publication PMC5059851, “Inhibition of Hedgehog-dependent tumors and cancer stem cells by a newly identified naturally occurring chemotype” (Cell Death & Disease, 2016).

Each structure is given as a SMILES string.

The assay has as its system cerebellar granule cell progenitors (GCPs). Description: BrdU proliferation assay in SAG-treated cerebellar granule cell progenitors. Format: cell-based, mouse. The note with it: SAG + compound at 5 and 10 μM, 48 h. An excerpt: Hh signaling is a critical regulator of cerebellum development controlling the proliferation of granule cell progenitors (GCPs) under Purkinje cell-derived Shh stimuli. Withdrawal of Hh signal, occurring physiologically after the first post-natal week in mice,[54] causes cell growth arrest and induces their differentiation into mature granules.[55] Importantly, genetic and epigenetic alterations in the Hh pathway are responsible for the lack of GCPs proliferation arrest, leading to the tumorigenic conversion of these progenitors, considered as the cell of origin of MB.[56], [57] To investigate the biological effects of 12, we first tested its ability to suppress Hh-dependent growth in 4-day-old mouse cerebellar progenitors.
Figure 4 Compound 12 inhibition of Hh-dependent growth of cerebellum granule cell progenitors. […] (a) Inhibition of cell proliferation was measured as percentage of BrdU incorporation in comparison with SAG-treated sample. […] (c) qRT-PCR analysis show Hh and proliferation targets mRNA expression levels determined in GCPs culture derived from 4-day-old mouse cerebella treated with SAG alone or in combination with compound 12 at 5 and 10 μM concentrations for 48 h. […]
Cell proliferation was evaluated by BrdU detection (Roche, Welwyn Garden City, UK). […] At least 500 nuclei were counted in triplicate, and the number of BrdU-positive nuclei was recorded. […]

Consider `COc1ccc(C=CC(=O)c2cc(OC)c(OC)cc2OC)cc1OC` [Compound 12, 3-(3,4-dimethoxy-phenyl)-1-(2,4,5-trimethoxy-phenyl)-2-propen-1-one], for which the “BrdU uptake / proliferation rate of GCPs” value was “reduced significantly”.
